# Test: physchem
row,logP,SMILES
1,3.8,"CC(Cc1ccc(F)cc1F)CC(O)(Cn1nc[nH]c1=S)C(C)(C)C (centres unmarked) [Example 2, 2-[2-tert-butyl-5-(2,4-difluorophenyl)-2-hydroxy-4-methyl-pentyl]-2,4-dihydro-[1,2,4]triazole-3-thione]"
2,3.6,"CC(C)(C)C(O)(CCCCc1ccccc1)Cn1nc[nH]c1=S (centres unmarked) [Example 16, 1-[2-tert-butyl-6-phenyl-2-hydroxyhexyl]-1H-1,2,4-triazole-5(4H)-thione]"
3,3.7,"CC(C)(C)C(O)(CCCCc1ccc(F)cc1)Cn1nc[nH]c1=S (centres unmarked) [Example 15, 1-[2-tert-Butyl-6-(4-fluorophenyl)-2-hydroxyhexyl]-1H-1,2,4-triazole-5(4H)-thione]"
4,3.3,"CC(C)(C)C(O)(CCCc1ccc(F)cc1F)Cn1nc[nH]c1=S (centres unmarked) [Example 10, 2-[2-tert-butyl-5-(2,4-difluoro-phenyl)-2-hydroxy-pentyl]-2,4-dihydro-[1,2,4]triazole-3-thione]"
5,3.4,"CC(C)(C)C(O)(CCCCc1ccccc1F)Cn1nc[nH]c1=S (centres unmarked) [Example 19, 1-[2-tert-butyl-6-(2-fluorophenyl)-2-hydroxyhexyl]-1H-1,2,4-triazole-5(4H)-thione]"
6,4.7,"CC(C)(C)C(O)(CCCCc1ccc(Cl)cc1Cl)Cn1nc[nH]c1=S (centres unmarked) [Example 20, 1-[2-tert-butyl-6-(2,4-dichlorophenyl)-2-hydroxyhexyl]-1H-1,2,4-triazole-5(4H)-thione]"
7,4,"CC(C)(C)C(O)(CCCCCc1ccc(F)cc1)Cn1nc[nH]c1=S (centres unmarked) [Example 21, 1-[2-tert-butyl-7-(4-fluorophenyl)-2-hydroxyheptyl]-1H-1,2,4-triazole-5(4H)-thione]"
8,4.2,"CC(C)(C)C(O)(CCCCc1ccc(Cl)cc1)Cn1nc[nH]c1=S (centres unmarked) [Example 17, 1-[2-tert-butyl-6-(4-chlorophenyl)-2-hydroxyhexyl]-1H-1,2,4-triazole-5(4H)-thione]"
9,4.4,"CC(C)(C)C(O)(CCCCCc1ccc(Cl)cc1)Cn1nc[nH]c1=S (centres unmarked) [Example 23, 1-[2-tert-butyl-7-(4-chlorophenyl)-2-hydroxyheptyl]-1H-1,2,4-triazole-5(4H)-thione]"
10,4,"CC(C)(C)C(O)(CCCCc1ccccc1Cl)Cn1nc[nH]c1=S (centres unmarked) [Example 18, 1-[2-tert-butyl-6-(2-chlorophenyl)-2-hydroxyhexyl]-1H-1,2,4-triazole-5(4H)-thione]"
11,4.2,"CC(C)(C)C(O)(CCCCCc1ccccc1F)Cn1nc[nH]c1=S (centres unmarked) [Example 22, 1-[2-tert-butyl-7-(2-fluorophenyl)-2-hydroxyheptyl]-1H-1,2,4-triazole-5(4H)-thione]"

# Source: US20120108422A1, “Antifungal 1,2,4-triazolyl Derivatives” (BASF SE, priority 2009, published 2012)
